Test results from BindingDB's records for doi:10.1021/jm00095a011 (Centre De Recherche De Vitry-Alfortville, 1992).

experiment: Capability to inhibit the binding of [3H]LTB4 to guinea pig spleen Leukotriene B4 receptor at the concentration of 10e-5 M

In order of rising IC50:
1. CC(CCCCCc1sccc1CCCc1ccccc1)C(=O)O (stereo not drawn)  110 nM
2. Cc1cc(CCCCCC(C)C(=O)O)c(CCCc2ccccc2)s1 (stereo not drawn)  300 nM
3. Cc1cc(CCCc2ccccc2)c(CCCCCC(C)C(=O)O)s1 (stereo not drawn)  300 nM
4. Cc1cc(CCCCCCC(=O)O)c(CCCc2ccccc2)s1  700 nM
5. CC(C)(CCCCCc1sc(-c2ccccc2)cc1CCCc1ccccc1)C(=O)O  800 nM
6. O=C(O)CCCCCCc1csc(CCCc2ccc(Cl)cc2)c1  1000 nM
7. O=C(O)CCCCCCc1sccc1CCCc1ccccc1  1000 nM
8. O=C(O)CCCCCCc1ccsc1CCCc1ccc(Cl)cc1  1000 nM
9. O=C(O)CCCCCCc1sc(-c2ccccc2)cc1CCCc1ccccc1  1000 nM
10. CC(C)(CCCCCc1cc(-c2ccccc2)sc1CCCc1ccccc1)C(=O)O  1200 nM
11. Cc1cc(CCCc2ccccc2)c(SCCCCCC(=O)O)s1  3000 nM
12. O=C(O)CCCCc1sccc1CCCc1ccccc1  3500 nM
13. O=C(O)CCCCCCc1csc(CCCc2ccc(O)cc2)c1  5000 nM
14. O=C(O)CCCCCC(O)c1sccc1CCCc1ccccc1 (stereo not drawn)  6000 nM
15. O=C(O)CCCCCCc1csc(Cc2ccccc2)c1  10000 nM
16. O=C(O)CCCCCCc1csc(CCc2ccccc2)c1  10000 nM

experiment: Capability of compound to inhibit the binding of [3H]LTB4 to guinea pig spleen Leukotriene B4 receptor at the concentration of 10e-5 M

Work on Cc1cc(CCCc2ccccc2)c(CCCCCC(C)(C)C(=O)O)s1 yielded an IC50 of 200 nM.

experiment: Capability of compound to inhibit the binding of [3H]LTB4 to guinea pig spleen Leukotriene B4 receptors at the concentration of 10e-5 M

Work on O=C(O)CCCCCCc1ccsc1CCCc1ccccc1 yielded an IC50 of 1000 nM.
